Consider 1 molecule from patent publication US10792277B2, “Methods of treatment of fibrosis and cancers” (GENFIT, priority 2013, dated 2020).

What all share (test): Gene expression (quantitative RT-PCR) in TGFβ1-activated hHSC
Common to all, as to type: cell-based, human

In test [1] the test system is Col4α1 gene expression in hHSC. The note with it: 10 μM; TGFβ1 1 ng/mL, 24 hours, serum free. As for the experimental part: (§1) The human primary hepatic stellate cells (hHSC) (ScienCell) were cultured under standard conditions, as described above. For experiments to determine gene expression patterns, hHSC were plated at a density of 1.4×10^5 cells/well into 12-well plates and were cultured overnight. Next day, culture medium was removed, cells were washed with PBS (Invitrogen cat #14190) and serum-free and SteCGS-free medium was added for an additional 16 hours. Cells were treated with compounds in addition to TGFβ1 (1 ng/mL) in a serum-free and SteCGS-free medium for 24 hours.
(§2) Total RNA was isolated using RNeasy® Mini Kit (Qiagen) following manufacturer's instructions. 250 ng of total RNA were reverse transcribed in cDNA using M-MLV RT (Moloney Murine Leukemia Virus Reverse Transcriptase) (Invitrogen cat #28025) in presence of RT buffer 1× (Invitrogen), 1 mM DTT (Invitrogen), 0.18 mM dNTPs (Promega), 200 ng pdN6 (Amersham) and 30 U of RNase inhibitor (Promega).
(§3) Quantitative PCR was then carried out using the MyiQ Single-Color Real-Time PCR Detection or the iCycler iQ Multiplex Real-Time PCR Detection System (both systems from Biorad). Briefly, PCR reactions were performed in 96 Well plates on 5 μL of 5× diluted reverse transcription mix using the iQ SYBR Green Supermix kit. The experimental conditions were: 25 μL of volume reaction, 3 mM of MgCl2, and 0.5 μL each of reverse and forward primers (10 pMol).
(§4) Expression levels were normalized using the expression of 36B4 gene as reference.
(§5) For each gene, the standard curves were drawn by selecting the best points (at least three points) in order to have PCR reaction efficiency close to 100% and a correlation coefficient close to 1. Expression levels were determined using the standard curve equation for both the housekeeping gene and the target gene (taking into account the specific PCR efficiency of each target gene).
(§6) The induction factor vs TGFβ1 was determined as follow: […]
(§7) Thus, lower the induction factor is more the compound of interest inhibits the TGFβ1 activation of hHSC. Experimental results were expressed as mean±standard deviation (SD) of the induction factor.
(§8) The expression of both profibrotic and cancer associated genes was induced in the primary human hepatic stellate cells (hHSCs) by the treatment with the TGFβ1 (1 ng/mL) in serum free conditions. […] The expression of the genes of interest in both treated and untreated hHSCs was determined by the quantitative RT-PCR technique, following 24 hours of exposure to the TGFβ1.
(§9) Experimental results were expressed as Emax values that indicate the maximum inhibition, which was obtained at the concentration of 10 μmole/L. Statistical analyses were performed using an one-way ANOVA followed by Bonferroni post-hoc tests, using Sigma Plot 11.0 software.

Test [2] relates to HGFR gene expression in hHSC. The note with it: 10 μM; TGFβ1 1 ng/mL, 24 hours, serum free. The protocol: as §1, §2, §3, §4, §5, §6, §7, §8, §9
For test [3], the system named is VEGFR1 gene expression in hHSC. The note with it: 10 μM; TGFβ1 1 ng/mL, 24 hours, serum free. As for the experimental part: as §1, §2, §3, §4, §5, §6, §7, §8, §9
Test [4] deals with αSMA gene expression in hHSC. The note with it: 10 μM; TGFβ1 1 ng/mL, 24 hours, serum free. The protocol:
as §1, §2, §3, §4, §5, §6, §7, §8, §9

The subject of test [5] is Col1α1 gene expression in hHSC. Conditions: 3 μM; TGFβ1 1 ng/mL, 24 hours, serum free. As for the experimental part: as §1
Total RNA was isolated using RNeasy® Mini Kit (Qiagen) following manufacturer's instructions. […]
Quantitative PCR was then carried out using the MyiQ Single-Color Real-Time PCR Detection or the iCycler iQ Multiplex Real-Time PCR Detection System (both systems from Biorad). […]
as §5, §6

The test system of test [6] is FGFR1 gene expression in hHSC. Conditions: 3 μM; TGFβ1 1 ng/mL, 24 hours, serum free. The protocol:
(§10) The human primary hepatic stellate cells (hHSC) (ScienCell) were cultured under standard conditions, as described above. For experiments to determine gene expression patterns, hHSC were plated at a density of 1.4×10^5 cells/well into 12-well plates and were cultured overnight. […] Cells were treated with compounds in addition to TGFβ1 (1 ng/mL) in a serum-free and SteCGS-free medium for 24 hours.
(§11) Total RNA was isolated using RNeasy® Mini Kit (Qiagen) following manufacturer's instructions.
as §3, §4
(§12) Expression levels were determined using the standard curve equation for both the housekeeping gene and the target gene (taking into account the specific PCR efficiency of each target gene).
as §6

Test [7] concerns TGFβR1 gene expression in hHSC. The note with it: 10 μM; TGFβ1 1 ng/mL, 24 hours, serum free. The protocol:
as §10, §11, §3, §4, §12, §6

The structures appear in SMILES notation.

Take `CNC(=O)c1cc(Oc2ccc(NC(=O)Nc3ccc(Cl)c(C(F)(F)F)c3)cc2)ccn1` [Sorafenib]: in test [1], the “Emax, reduction in Col4α1 gene expression vs hHSC treated with TGFβ1 alone” value is −93%. The “Emax, reduction in HGFR gene expression vs hHSC treated with TGFβ1 alone” value in test [2] is recorded as −79%. Moreover, in test [3], the “Emax, reduction in VEGFR1 gene expression vs hHSC treated with TGFβ1 alone” value was −95%. In test [4], the “Emax, reduction in αSMA gene expression vs hHSC treated with TGFβ1 alone” value is −95%. In addition, the “Emax, reduction in Col1α1 gene expression vs hHSC treated with TGFβ1 alone” value in test [5] was −93%. Besides, the “Emax, reduction in FGFR1 gene expression vs hHSC treated with TGFβ1 alone” value in test [6] is −43%. The “Emax, reduction in TGFβR1 gene expression vs hHSC treated with TGFβ1 alone” value in test [7] was −80%.
